The values below are quoted from earlier work in PMC11232374, “Safety, tolerability, and pharmacokinetics of HRS9432(A) injection in healthy Chinese subjects: a phase-I randomized, double-blind, dose escalation, placebo-controlled study” (Antimicrobial Agents and Chemotherapy, 2024).

For this data set the following is noted: after a single intravenous dose. The text has this:
Echinocandin-class antifungal drugs currently available on the market include caspofungin, micafungin, and anidulafungin. The chemical structures of these drugs contribute to their relatively short half-life, necessitating daily administration in clinical practice ([3]). Rezafungin is a long-acting echinocandin antifungal drug, based on the structure of anidulafungin to enhance metabolic stability. […] The results of its Pha ...

For the substance Rezafungin, the elimination half-life was 150 h.
